Source: patent publication US8178524B2, “Noribogaine in the treatment of pain and drug addiction” (Demerx, Inc., priority 1997, dated 2012)

Biological target: T1, μ-opioid receptor (Rattus norvegicus, UniProt P33535)
T1 construct: from tissue; host or cells: rat (Sprague Dawley) thalamic membranes
Assay: Stimulation of [35S]GTPγS binding to rat thalamic membranes (receptor activation of G proteins)
Assay type: biochemical, Rat (Sprague Dawley)

T1 sequence (P33535 whole entry): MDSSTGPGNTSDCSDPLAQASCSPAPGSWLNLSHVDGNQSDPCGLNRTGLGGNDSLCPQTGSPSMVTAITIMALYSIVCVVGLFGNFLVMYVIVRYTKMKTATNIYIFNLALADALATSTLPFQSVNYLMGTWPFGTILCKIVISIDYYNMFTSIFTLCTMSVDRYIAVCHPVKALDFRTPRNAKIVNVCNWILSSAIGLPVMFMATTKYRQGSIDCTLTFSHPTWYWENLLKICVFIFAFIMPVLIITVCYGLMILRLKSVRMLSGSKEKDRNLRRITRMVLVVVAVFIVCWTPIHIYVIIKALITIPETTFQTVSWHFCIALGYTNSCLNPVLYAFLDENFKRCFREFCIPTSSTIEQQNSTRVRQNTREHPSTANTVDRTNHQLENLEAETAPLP

| Compound | stimulation of [35S]GTPγS binding (even at concentrations above 100 μM) | agonist efficacy at the μ-opioid receptor (conclusion from [35S]GTPγS binding results) | level of [35S]GTPγS binding stimulated vs maximal number of binding sites occupied after DAMGO stimulation (relative to DAMGO stimulation of G proteins) |
| --- | --- | --- | --- |
| CC[C@H]1C[C@H]2C[C@H]3c4[nH]c5ccc(OC)cc5c4CCN(C2)C13 [Ibogaine] | weak stimulation |  |  |
| CC[C@H]1C[C@H]2C[C@H]3c4[nH]c5ccc(O)cc5c4CCN(C2)C13 [Noribogaine, 12-hydroxyibogamine] |  | full agonist | in close agreement |
